Reference: patent US12590080B2, “Compounds” (PACKINAX PTY LTD, priority 2020, dated 2026)
“Also recorded” adds a separate entry of the source. Structures can show the parent of a compound that is named as a salt. Where two headings read alike, the source gives them in different places. Blank lines part the entries; values can stand above or below the molecule they belong to.

Assays:
PAK4 kinase = PAK4 kinase (Homo sapiens, UniProt O96013); experiment: Cell-free kinase assay, PAK4; type: biochemical; conditions: read-out: IC50, inhibition of PAK4 kinase
PAK4 kinase, sequence (O96013 whole entry): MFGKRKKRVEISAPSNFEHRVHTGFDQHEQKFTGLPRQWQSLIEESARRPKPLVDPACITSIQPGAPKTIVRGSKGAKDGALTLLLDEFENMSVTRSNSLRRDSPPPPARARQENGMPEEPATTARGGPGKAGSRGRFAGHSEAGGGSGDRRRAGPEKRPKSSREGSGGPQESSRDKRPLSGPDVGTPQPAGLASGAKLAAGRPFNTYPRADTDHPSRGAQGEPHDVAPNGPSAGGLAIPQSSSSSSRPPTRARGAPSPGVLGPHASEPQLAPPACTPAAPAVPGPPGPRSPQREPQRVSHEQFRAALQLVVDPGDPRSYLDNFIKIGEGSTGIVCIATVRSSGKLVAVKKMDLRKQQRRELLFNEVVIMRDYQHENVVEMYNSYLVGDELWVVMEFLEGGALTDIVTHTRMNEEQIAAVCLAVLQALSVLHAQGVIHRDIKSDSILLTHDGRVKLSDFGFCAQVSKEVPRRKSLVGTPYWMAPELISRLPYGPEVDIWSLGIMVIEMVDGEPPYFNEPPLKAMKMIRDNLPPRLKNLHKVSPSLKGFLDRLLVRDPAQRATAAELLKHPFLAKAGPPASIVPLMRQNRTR

PAK1 = PAK1 (Homo sapiens, UniProt Q13153); experiment: Cell-free kinase assay, PAK1; type: biochemical
PAK1, sequence (Q13153 whole entry): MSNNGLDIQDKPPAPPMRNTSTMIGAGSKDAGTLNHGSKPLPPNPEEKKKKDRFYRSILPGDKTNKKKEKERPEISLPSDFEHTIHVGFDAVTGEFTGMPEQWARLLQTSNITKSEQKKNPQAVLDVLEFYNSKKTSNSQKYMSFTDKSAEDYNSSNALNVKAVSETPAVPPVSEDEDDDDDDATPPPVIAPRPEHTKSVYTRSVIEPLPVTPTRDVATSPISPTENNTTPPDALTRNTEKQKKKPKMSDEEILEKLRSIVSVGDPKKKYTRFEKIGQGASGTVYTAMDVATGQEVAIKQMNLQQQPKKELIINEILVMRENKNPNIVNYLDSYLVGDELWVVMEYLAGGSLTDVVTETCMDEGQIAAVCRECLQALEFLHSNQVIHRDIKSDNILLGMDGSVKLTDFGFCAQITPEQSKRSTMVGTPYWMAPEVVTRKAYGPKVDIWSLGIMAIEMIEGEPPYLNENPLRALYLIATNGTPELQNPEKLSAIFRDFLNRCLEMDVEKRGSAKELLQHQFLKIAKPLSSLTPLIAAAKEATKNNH

[1] = tested on: PANC1 (pancreatic cancer); experiment: Cell proliferation, PANC1; type: cell-based, human
From the text: (§1) Pancreatic cancer cell lines MiaPaCa-2, PANC1 (human), TB33117 (mouse), and KPCWT833 were used to test the effect of Compound Ia on cell proliferation. PANC1 and TB33117 cell lines express high levels of PAK1 and PAK4, while MiaPaCa-2 cell has low levels of PAK1 and PAK4 (Yeo, 2014 and unpublished data). […] Compound Ia was also shown to inhibit colorectal cell line MC-38, brain glioblastoma cancer cell like U-87, melanoma cell line B16F1, liver cell line HepG2, and bile duct cancer cell line EIG-1 at low to sub-micromolar IC50 values.

[2] = tested on: TB33117 (pancreatic cancer); experiment: Cell proliferation, TB33117; type: cell-based, mouse
From the text: as §1

[3] = tested on: MiaPaCa-2 (pancreatic cancer); experiment: Cell proliferation, MiaPaCa-2; type: cell-based; conditions: Homo sapiens, MIA PaCa-2
From the text: as §1

[4] = tested on: KPCWT833 (pancreatic cancer); experiment: Cell proliferation, KPCWT833; type: cell-based
From the text: as §1

MC-38 (colon cancer) = experiment: Cell proliferation, MC-38; type: cell-based; conditions: Mus musculus
From the text: as §1

U-87 (brain tumour) = experiment: Cell proliferation, U-87; type: cell-based; conditions: Homo sapiens, U-87 MG
From the text: as §1

B16F10 (skin cancer) = experiment: Cell proliferation, B16F10; type: cell-based; conditions: Mus musculus, B16-F10
HepG2 (liver cancer) = experiment: Cell proliferation, HepG2; type: cell-based; conditions: Homo sapiens
From the text: as §1

[5] = tested on: EIG-1 (cholangiocarcinoma); experiment: Cell proliferation, EIG-1; type: cell-based
From the text: as §1

PD-L1 = experiment: Western blot of PD-L1 expression in DLD-1 cells; type: cell-based; conditions: DLD-1 cells, 0, 1, 10, 20, 50 μM, 24 h
Procedure: (§2) Cells from a colorectal cancer cell line (DLD-1) were incubated with Compound Ia (0, 1, 10, 20, 50 μM), or with compound PF-3758309 (500 nM) for 24 h. At the end of 24 h culture, the medium was removed from the cells, and the cells were washed once with PBS. The cells were lysed in SDS-sample buffer. The resultant cell lysates were subjected to 10% SDS-PAGE to separate the proteins with different molecular weights, which then were blotted with antibodies against PD-L1, PAK1, PAK4, α-SMA and GAPDH.

PAK4 = experiment: Western blot of PAK4 expression in DLD-1 cells; type: cell-based; conditions: 24 h
Procedure: as §2

[6] = tested on: alpha smooth muscle actin (α-SMA); experiment: Western blot of α-SMA expression in DLD-1 cells; type: cell-based; conditions: 24 h
Procedure: as §2

CHEK2 = target: T1, CHEK2 (Homo sapiens, UniProt O96017); experiment: ADP-Glo kinase assay, CHEK2; type: biochemical
T1 construct: purchased Promega (Sydney, NSW, Australia)
T1 sequence (O96017 whole entry): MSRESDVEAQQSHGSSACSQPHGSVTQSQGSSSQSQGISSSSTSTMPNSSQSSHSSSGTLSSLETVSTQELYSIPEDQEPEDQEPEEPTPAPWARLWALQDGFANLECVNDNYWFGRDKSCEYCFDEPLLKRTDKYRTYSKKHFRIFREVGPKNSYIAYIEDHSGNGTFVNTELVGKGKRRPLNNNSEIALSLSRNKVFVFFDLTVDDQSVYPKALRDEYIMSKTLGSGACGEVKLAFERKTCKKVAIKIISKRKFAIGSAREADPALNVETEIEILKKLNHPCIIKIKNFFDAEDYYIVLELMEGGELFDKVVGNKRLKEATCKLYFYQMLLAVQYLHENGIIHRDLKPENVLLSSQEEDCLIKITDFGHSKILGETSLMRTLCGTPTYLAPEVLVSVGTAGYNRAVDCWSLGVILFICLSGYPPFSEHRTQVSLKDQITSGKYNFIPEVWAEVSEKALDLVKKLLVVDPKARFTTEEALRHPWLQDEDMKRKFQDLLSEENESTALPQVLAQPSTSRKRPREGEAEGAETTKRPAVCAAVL
Procedure: The effects of Compound Ia on CHEK2 kinase activity was assessed using an ADP-Glo kinase assay kit purchased from Promega (Sydney, NSW, Australia). The assay was undertaken in accordance with the manufacturer's instructions.

KPC833 cells = experiment: In vivo efficacy in combination with Gemcitabine, subcutaneous KPC833 tumours in C57Bl6
[7] = tested on: immunological biomarkers in tumour tissues; experiment: Immunological biomarkers in tumour tissues by flow cytometry, syngeneic mouse models of pancreatic cancer; type: in vivo; conditions: combination with Gemcitabine
Procedure: The effects of Compound Ia on immunological biomarkers was assessed using syngeneic mouse models of pancreatic cancer.
Single cell suspension was made from tumour tissues isolated from mice treated with either gemcitabine alone or gemcitabine plus PAK227. The cell suspension was incubated with antibodies against CD45, CD4, CD8, B220, PD-L1, PD-1, CD11b and Ly6c, and then subjected to a flow-cytometry machine for cell number counting and percentage calculation.

[8] = Dissolution of the prodrug in ethanol/water; type: physicochemical; conditions: 67% ethanol in water solution

Compound: CNc1ncc(-c2ccc(Cc3c(Cl)cc(OC)cc3Cl)o2)cn1 [Compound Ia, 5-[5-[(2,6-dichloro-4-methoxyphenyl)methyl]furan-2-yl]-N-methylpyrimidin-2-amine]
IC50 (PAK4 kinase): 200 to 500 nM
effect on the kinase activity of PAK1 (PAK1): did not show significant effect
IC50 ([1]; Homo sapiens, PANC-1, PANC1): 1110 nM
IC50 ([1]; PANC1): 1000 to 2000 nM
IC50 [2]: 1000 to 2000 nM
IC50 ([2]; Mus musculus): 1720 nM
IC50 [3]: 8290 nM
IC50 [4]: 1230 ± 390 nM
IC50 (MC-38 (colon cancer)): 460 ± 390 nM
IC50 (U-87 (brain tumour)): 6550 ± 3550 nM
IC50 (B16F10 (skin cancer)): 13300 nM
IC50 (HepG2 (liver cancer)): 3760 ± 660 nM
IC50 [5]: 4630 nM
expression of PD-L1 (PD-L1): dose-dependently inhibited
expression of PD-L1 (PD-L1; listed as Compound Ta): reduced the expression of PD-L1 to a comparable level
expression of PAK4 (PAK4): reduced expression
expression of alpha smooth muscle actin (α-SMA) [6]: reduced expression
IC50 (CHEK2): 737 nM
toxicity (body weight) (KPC833 cells; combination with Gemcitabine): no body weight loss was observed
tumour volume compared to untreated control tumours (KPC833 cells; combination with Gemcitabine, 21 days and 31 days, 40 mg/Kg subcutaneous every other day): regression of pancreatic tumour growth
efficacy against advanced tumours compared to Gemcitabine alone (KPC833 cells; combination with Gemcitabine, tumour size=100 mm^3): improved efficacy
tumour volume over 21 days compared to gemcitabine alone (KPC833 cells; intra-tumour injection 10 mg/kg on day 1, followed by gemcitabine 50 mg/kg): decreased tumour volume
expression of immunological biomarkers in tumour tissues compared to Gemcitabine alone [7]: increases the expression of immunological biomarkers; also recorded: increases various immunological biomarkers

solubility in ethanol/water [8]: able to be dissolved
Compound: COc1cc(Cl)c(Cc2ccc(-c3cnc(NC(=O)CN)nc3)o2)c(Cl)c1 [Compound Ic, 2-amino-N-(5-{5-[(2,6-dichloro-4-methoxyphenyl)methyl]furan-2-yl}pyrimidin-2-yl)acetamide hydrochloride]

IC50 ([1]; Homo sapiens, PANC-1, PANC1): 500 nM
IC50 ([2]; Mus musculus): 805 nM
IC50 [3]: 87 nM
Compound: Cc1nc(Nc2n[nH]c3c2CN(C(=O)N[C@H](CN(C)C)c2ccccc2)C3(C)C)c2sccc2n1 [PF3758309, reference compound]
